Reference: patent publication US20230332232A1, “COMPOSITIONS AND METHODS FOR DIAGNOSING AND TREATING A DYSTONIA” (Duke University, priority 2020, published 2023)

Test system: DYT1 knockin (Tor1a^delGAG/+) murine embryonic fibroblasts (MEFs)
Experiment: Untargeted LC/MS/MS proteomics of EVs from DYT1 MEFs exposed 24 hours to drug, compared with untreated DYT1 (Het) MEFs
Type: cell-based, mouse
Experimental: Methods for isolation and purification of exosomes and extracellular vesicles (EV) were extensively reviewed. Experiments were performed to arrive at a robust and reproducible protocol. The protocol used herein is that set forth in Théry et al, 2006, which is incorporated by reference for it teaching of this protocol. This protocol involves depleting serum-derived EVs from cell culture media by overnight ultracentrifugation and exchanging media for 1% FBS EV-depleted media. Media is then collected from cells following a 24-hour conditioning period and EVs are isolated by 18-hour ultracentrifugation at 100,000 g (FIG. 1A).
EVs were isolated from media of cultured murine embryonic fibroblasts (MEFs) prepared in-house according to protocols described by Xu 2005 from DYT1 knockin mice (Tor1a^delGAG/+) (Goodchild R E, et al. (2005) Neuron. 48:923-932) and littermate wild-type (WT) controls. The cultured MEFs from the DYT1 mice were exposed for 24 hours to Ritonavir (RTV) while the MEFs from WT mice were exposed to vehicle, ISRIB, or Salubrinal (SAL). The EVs isolated from these WT cells and DYT1 were characterized by untargeted proteomics and RNA-seq to identify differentially expressed proteins and RNAs as candidate biomarkers. Experimenter and Proteomics core staff were blinded to genotype of cell cultures throughout preparation and analysis phases.
Samples were first normalized to 20 μg and spiked with undigested casein at a total of 40 fmol/μg, 80 fmol/μg, or 160 fmol/μg, then reduced with 10 mM dithiolthreitol for 30 minute at 80° C. and alkylated with 20 mM iodoacetamide for 30 minutes at room temperature. Next, the samples were supplemented with a final concentration of 1.2% phosphoric acid and 741 μL of S-Trap (Protifi) binding buffer (90% MeOH/100 mM […]). Proteins were trapped on the S-Trap, digested using 20 ng/μL sequencing grade trypsin (Promega) for 1 hour at 47° C., and eluted using 50 mM TEAB, followed by 0.2% FA, and lastly using 50% CAN/0.2% FA. All samples were then lyophilized to dryness and resuspended in 40 μL 1% TFA/2% acetonitrile containing 12.5 fmol/μL yeast alcohol dehydrogenase (ADH_YEAST). A QC Pool was created from 3 uL of each sample. All QC Pools were run periodically throughout the acquisition period.
Quantitative LC/MS/MS was performed on 2 μL of each sample, using a nanoAcquity UPLC system (Waters Corp) coupled to a Thermo Orbitrap Fusion Lumos high resolution accurate mass tandem mass spectrometer (Thermo) via a nanoelectrospray ionization source. Briefly, the sample was first trapped on a Symmetry C18 20 mm×180 μm trapping column (5 μL/min at 99.9/0.1 v/v water/acetonitrile), after which the analytical separation was performed using a 1.8 μm Acquity HSS T3 C18 75 μm×250 mm column (Waters Corp.) with a 90 minute linear gradient of 5% to 30% acetonitrile with 0.1% formic acid at a flow rate of 400 nanoliters/minute (nL/min) with a column temperature of 55° C. Data collection on the Fusion Lumos mass spectrometer was performed in a data-dependent acquisition (DDA) mode of acquisition with a r=120,000 (@ m/z 200) full MS scan from m/z 375-1500 with a target AGC value of 2e5 ions. MS/MS scans were acquired at Rapid scan rate (Ion Trap) with an AGC target of 5e3 ions and a max injection time of 100 ms. The total cycle time for MS and MS/MS scans was 2 seconds. A 20 second dynamic exclusion was employed to increase depth of coverage. The total analysis cycle time for each sample injection was approximately 2 hours.

CC(C)c1nc(CN(C)C(=O)N[C@H](C(=O)N[C@@H](Cc2ccccc2)C[C@H](O)[C@H](Cc2ccccc2)NC(=O)OCc2cncs2)C(C)C)cs1 [RTV, Ritonavir]
direction of modulated EV protein expression (DYT1 cells, 363 proteins of the DYT1 Genotype Dependent Differences subset): modulated expression in a therapeutic direction | Abs Z Score Sum (Geno + RTV) (EV protein A2AVA0 Sushi, von Willebrand factor type A, EGF and pentraxin domain-containing protein 1): 2.64 | Abs Z Score Sum (Geno + RTV) (EV protein Akr1b1 (P45376)): 8.44 | Abs Z Score Sum (Geno + RTV) (EV protein Aldh2 (P47738)): 25.29 | RTV Direction Opposite dE? (EV protein Aldh2 (P47738)): yes | Abs Z Score Sum (Geno + RTV) (EV protein C1qtnf3 (Q9..)): 6.95 | Abs Z Score Sum (Geno + RTV) (EV protein Cnn3 (Q9DAW9)): 13.28 | RTV Direction Opposite dE? (EV protein Cnn3 (Q9DAW9)): yes | Abs Z Score Sum (Geno + RTV) (EV protein Cnot1 (Q6ZQ08)): 12.30 | RTV Direction Opposite dE? (EV protein Cnot1 (Q6ZQ08)): yes | Abs Z Score Sum (Geno + RTV) (EV protein Col5A1 Q88207): 5.55 | Abs Z Score Sum (Geno + RTV) (EV protein Coph2 Q55029): 9.40 | Abs Z Score Sum (Geno + RTV) (EV protein Cryab (P23927)): 5.18 | RTV Direction Opposite dE? (EV protein Cryab (P23927)): yes | Abs Z Score Sum (Geno + RTV) (EV protein Cxadr (P97792)): 16.73 | RTV Direction Opposite dE? (EV protein Cxadr (P97792)): yes | RTV Direction Opposite dE? (EV protein D3YXG0): yes | RTV Direction Opposite dE? (EV protein Dars (Q922B2)): yes | RTV Direction Opposite dE? (EV protein Dctn2 (Q99KJ8)): yes | Abs Z Score Sum (Geno + RTV) (EV protein Ddx3x (Q62167)): 5.09 | Abs Z Score Sum (Geno + RTV) (EV protein Ddx5 (Q61656)): 8.05 | Abs Z Score Sum (Geno + RTV) (EV protein Ddx39b (Q9Z1N5)): 16.28 | RTV Direction Opposite dE? (EV protein Ddx39b (Q9Z1N5)): yes | Abs Z Score Sum (Geno + RTV) (EV protein Dhx9 (Q70133)): 9.00 | Abs Z Score Sum (Geno + RTV) (EV protein Dhx15 (Q35286)): 7.27 | Abs Z Score Sum (Geno + RTV) (EV protein Efemp1 Q8BPB5): 8.34 | RTV Direction Opposite dE? (EV protein Esyt1 (Q3U7R1)): yes | Abs Z Score Sum (Geno + RTV) (EV protein Exoc4 (Q35382)): 14.59 | RTV Direction Opposite dE? (EV protein Exoc4 (Q35382)): yes | Abs Z Score Sum (Geno + RTV) (EV protein Extended synaptotagmin-1 (Q3..)): 4.61 | Abs Z Score Sum (Geno + RTV) (EV protein Fth1 P09528): 12.58 | Abs Z Score Sum (Geno + RTV) (EV protein Fus (P56959)): 14.88 | RTV Direction Opposite dE? (EV protein Fus (P56959)): yes | Abs Z Score Sum (Geno + RTV) (EV protein Gsto1 (Q09131)): 8.09 | RTV Direction Opposite dE? (EV protein Gsto1 (Q09131)): yes | Abs Z Score Sum (Geno + RTV) (EV protein Hmen1 D3YXG0): 11.51 | RTV Direction Opposite dE? (EV protein Hnrnpf (Q9Z2X1)): yes | RTV Direction Opposite dE? (EV protein Hnrnph1 (Q35737)): yes | Abs Z Score Sum (Geno + RTV) (EV protein Hnrnpl Q8R081): 9.12 | Abs Z Score Sum (Geno + RTV) (EV protein Idh2 (P54071)): 26.73 | Abs Z Score Sum (Geno + RTV) (EV protein Igf1r Q60751): 4.86 | RTV Direction Opposite dE? (EV protein Impa1 (Q55023)): yes | Abs Z Score Sum (Geno + RTV) (EV protein Ipo7 (Q9EPL8)): 5.25 | RTV Direction Opposite dE? (EV protein Ipo7 (Q9EPL8)): yes | Abs Z Score Sum (Geno + RTV) (EV protein Ipo11 (Q8K2V6)): 13.53 | RTV Direction Opposite dE? (EV protein Ipo11 (Q8K2V6)): yes | Abs Z Score Sum (Geno + RTV) (EV protein Itgb3 (Q54890)): 4.87 | RTV Direction Opposite dE? (EV protein Itgb3 (Q54890)): yes | Abs Z Score Sum (Geno + RTV) (EV protein Itm2b Q89051): 17.16 | Abs Z Score Sum (Geno + RTV) (EV protein Itpa (Q9D892)): 23.68 | RTV Direction Opposite dE? (EV protein Itpa (Q9D892)): yes | Abs Z Score Sum (Geno + RTV) (EV protein Kpna4 (Q35343)): 14.28 | RTV Direction Opposite dE? (EV protein Kpna4 (Q35343)): yes | Abs Z Score Sum (Geno + RTV) (EV protein Lipg (Q9WVG5)): 11.27 | Abs Z Score Sum (Geno + RTV) (EV protein Mdk (P12025)): 7.88 | RTV Direction Opposite dE? (EV protein Mdk (P12025)): yes | Abs Z Score Sum (Geno + RTV) (EV protein Mem2 P97310): 7.66 | Abs Z Score Sum (Geno + RTV) (EV protein Mtap (Q9CQ65)): 8.12 | RTV Direction Opposite dE? (EV protein Myo18a): yes | Abs Z Score Sum (Geno + RTV) (EV protein Myo18a (Q9JM..)): 7.78 | Abs Z Score Sum (Geno + RTV) (EV protein Nap114 Q78ZA7): 50.77 | Abs Z Score Sum (Geno + RTV) (EV protein Nrbp1 (Q99..)): 9.54 | RTV Direction Opposite dE? (EV protein Nrbp1 (Q99J45)): yes | Abs Z Score Sum (Geno + RTV) (EV protein Otub1 (Q7TQ..)): 11.30 | RTV Direction Opposite dE? (EV protein P09528, Ferritin heavy chain): yes | RTV Direction Opposite dE? (EV protein P27612, Phospholipase A-2-activating protein): yes | Abs Z Score Sum (Geno + RTV) (EV protein P48678 Prelamin-A C): 7.44 | RTV Direction Opposite dE? (EV protein P61089, Ubiquitin-conjugating enzyme): yes | Abs Z Score Sum (Geno + RTV) (EV protein Pdia4 (P08003)): 5.92 | RTV Direction Opposite dE? (EV protein Pdia4 (P08003)): yes | Abs Z Score Sum (Geno + RTV) (EV protein Penk (P22005)): 4.31 | RTV Direction Opposite dE? (EV protein Penk (P22005)): yes | Abs Z Score Sum (Geno + RTV) (EV protein Plaa P27612): 12.45 | Abs Z Score Sum (Geno + RTV) (EV protein Pld3 (Q35405)): 7.47 | RTV Direction Opposite dE? (EV protein Pld3 (Q35405)): yes | Abs Z Score Sum (Geno + RTV) (EV protein Prep Q9QUR6): 8.56 | Abs Z Score Sum (Geno + RTV) (EV protein Prpf8 (Q99PV0)): 11.34 | Abs Z Score Sum (Geno + RTV) (EV protein Psmd1 (Q3TXS7)): 7.84 | Abs Z Score Sum (Geno + RTV) (EV protein Pura (P42669)): 6.04 | RTV Direction Opposite dE? (EV protein Pura (P42669)): yes | RTV Direction Opposite dE? (EV protein Q6X893, Choline transporter-like protein 1): yes | RTV Direction Opposite dE? (EV protein Q8BL97, Serine arginine-rich splicing factor 7): yes | RTV Direction Opposite dE? (EV protein Q8C878, NEDD8-activating enzyme E1 catalytic subunit): yes | Abs Z Score Sum (Geno + RTV) (EV protein Q8C878 NEDD8-activating enzyme .. subunit): 14.97 | Abs Z Score Sum (Geno + RTV) (EV protein Q8CG19 Latent-transforming GF β-binding protein 1): 6.03 | Abs Z Score Sum (Geno + RTV) (EV protein Q9D1M4 (Eukaryotic translation .. epsilon-1)): 20.67 | RTV Direction Opposite dE? (EV protein Q9D1M4, Eukaryotic translation EF1 epsilon-1): yes | RTV Direction Opposite dE? (EV protein Q9FS30, Complement C1q tumor necrosis factor-related protein 3): yes | RTV Direction Opposite dE? (EV protein Q9Z1Z0, General vesicular transport factor p115): yes | Abs Z Score Sum (Geno + RTV) (EV protein Q9Z2X1 Heterogeneous nuclear ribonucleoprotein E): 12.02 | RTV Direction Opposite dE? (EV protein Q78ZA7, Nucelosome assembly protein 1-like 4): yes | Abs Z Score Sum (Geno + RTV) (EV protein Q99KJ8 Dynactin subunit 2): 13.94 | Abs Z Score Sum (Geno + RTV) (EV protein Q922B2 Aspartate--tRNA ligase): 12.17 | Abs Z Score Sum (Geno + RTV) (EV protein Q01405 Protein transport protein .. 23A): 13.20 | Abs Z Score Sum (Geno + RTV) (EV protein Q35737 Heterogeneous nuclear ribonucleoprotein H): 8.31 | Abs Z Score Sum (Geno + RTV) (EV protein Q55023 Inositol monophosphatase 1): 14.51 | RTV Direction Opposite dE? (EV protein Q60751, Insulin-like growth factor 1 receptor): yes | Abs Z Score Sum (Geno + RTV) (EV protein Q60972 Histone-binding protein RBBP4): 18.10 | RTV Direction Opposite dE? (EV protein Q89051, Integral membrane protein 2B): yes | Abs Z Score Sum (Geno + RTV) (EV protein Qars (Q8BML9)): 13.17 | RTV Direction Opposite dE? (EV protein Qars (Q8BML9)): yes | Abs Z Score Sum (Geno + RTV) (EV protein Rab6a (P35279)): 6.80 | RTV Direction Opposite dE? (EV protein Rab6a (P35279)): yes | RTV Direction Opposite dE? (EV protein Rbbp4 (Q60972)): yes | Abs Z Score Sum (Geno + RTV) (EV protein Rpl22 (P67984)): 7.66 | RTV Direction Opposite dE? (EV protein Rpl22 (P67984)): yes | Abs Z Score Sum (Geno + RTV) (EV protein S100a11 (P50543)): 8.18 | RTV Direction Opposite dE? (EV protein S100a11 (P50543)): yes | Abs Z Score Sum (Geno + RTV) (EV protein Scarb2 (Q35114)): 3.91 | RTV Direction Opposite dE? (EV protein Scarb2 (Q35114)): yes | RTV Direction Opposite dE? (EV protein Sec23a (Q01405)): yes | Abs Z Score Sum (Geno + RTV) (EV protein Sec31a (Q3..)): 8.41 | Abs Z Score Sum (Geno + RTV) (EV protein Shrnt2 Q9CZN7): 11.93 | Abs Z Score Sum (Geno + RTV) (EV protein Slc44a1 Q6X893): 3.67 | Abs Z Score Sum (Geno + RTV) (EV protein Spp1 (P10923)): 11.35
